pKi: −log10 of the molar value. Activity calls are given as the source filed them. No cut-off for these calls is given here.
What was measured:
[1] = molecular target: T1, 5-hydroxytryptamine receptor 1A (Homo sapiens, UniProt P08908); assay: Displacement of [3H]WAY-100635 from human cloned 5HT1A receptor expressed in CHO cells; type: cell-based
T1 sequence (P08908 whole entry): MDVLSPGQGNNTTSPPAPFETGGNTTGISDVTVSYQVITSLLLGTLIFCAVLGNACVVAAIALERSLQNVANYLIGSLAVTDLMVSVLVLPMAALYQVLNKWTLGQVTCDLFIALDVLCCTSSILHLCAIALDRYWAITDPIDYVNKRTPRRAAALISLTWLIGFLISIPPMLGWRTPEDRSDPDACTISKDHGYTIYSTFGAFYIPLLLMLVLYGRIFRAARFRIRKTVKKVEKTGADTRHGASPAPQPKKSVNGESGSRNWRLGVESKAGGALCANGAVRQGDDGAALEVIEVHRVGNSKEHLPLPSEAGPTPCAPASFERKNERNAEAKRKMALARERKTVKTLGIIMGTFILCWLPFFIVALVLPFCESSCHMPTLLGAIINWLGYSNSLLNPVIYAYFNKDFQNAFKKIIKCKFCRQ

[2] = molecular target: 5-hydroxytryptamine receptor 1B (Homo sapiens, UniProt P28222); assay: Displacement of [3H]5-HT from human cloned 5HT1B receptor expressed in CHO cells; type: cell-based
[3] = molecular target: 5-hydroxytryptamine receptor 1D (Homo sapiens, UniProt P28221); assay: Displacement of [3H]5-HT from human cloned 5HT1D receptor expressed in CHO cells; type: cell-based
[4] = molecular target: Sodium-dependent serotonin transporter (Rattus norvegicus, UniProt P31652); assay: Inhibition of [3H]5-HT uptake at SERT in rat cortical synaptosomes; type: subcellular, Brain
[5] = molecular target: 5-hydroxytryptamine receptor 2A (Homo sapiens, UniProt P28223); assay: Displacement of [3H]ketanserin from human cloned 5HT2A receptor expressed in HEK293 cells; type: cell-based
[6] = molecular target: 5-hydroxytryptamine receptor 2B (Homo sapiens, UniProt P41595); assay: Displacement of [3H]5-HT from human cloned 5HT2B receptor expressed in HEK293 cells; type: cell-based
[7] = molecular target: T2, 5-hydroxytryptamine receptor 2C (Homo sapiens, UniProt P28335); assay: Displacement of [3H]mesulergine from human cloned 5HT2C receptor expressed in HEK293 cells; type: cell-based
T2 sequence (P28335 whole entry): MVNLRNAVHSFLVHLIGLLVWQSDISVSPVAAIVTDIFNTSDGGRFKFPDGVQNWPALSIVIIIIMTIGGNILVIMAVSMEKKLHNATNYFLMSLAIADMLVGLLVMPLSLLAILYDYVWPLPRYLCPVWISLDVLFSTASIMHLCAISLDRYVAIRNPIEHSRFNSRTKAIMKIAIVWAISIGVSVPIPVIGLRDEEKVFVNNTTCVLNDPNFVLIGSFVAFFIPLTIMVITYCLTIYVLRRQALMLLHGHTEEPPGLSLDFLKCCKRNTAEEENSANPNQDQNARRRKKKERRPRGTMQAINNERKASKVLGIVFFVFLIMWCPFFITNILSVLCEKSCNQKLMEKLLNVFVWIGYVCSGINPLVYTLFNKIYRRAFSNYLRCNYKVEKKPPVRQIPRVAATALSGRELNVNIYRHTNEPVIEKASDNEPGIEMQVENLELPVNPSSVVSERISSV

[8] = molecular target: 5-hydroxytryptamine receptor 6 (Homo sapiens, UniProt P50406); assay: Displacement of [3H]LSD from human cloned 5HT6 receptor expressed in HeLa cells; type: cell-based
[9] = molecular target: 5-hydroxytryptamine receptor 7 (Homo sapiens, UniProt P34969); assay: Displacement of [3H]5CT from human cloned 5HT7a receptor expressed in HEK293 cells; type: cell-based
[10] = Blood clearance in rat at 3 mg/kg, po; type: ADME, organism-based; set-up: dose 3 mg/kg, route oral; conditions: whole blood
[11] = Oral bioavailability in rat at 3 mg/kg, po; type: ADME, organism-based; conditions: in vivo
[12] = molecular target: D(2) dopamine receptor (Homo sapiens, UniProt P14416); assay: Displacement of [125I]iodosulpiride from human cloned D2 receptor expressed in CHO cells; type: cell-based
[13] = molecular target: D(3) dopamine receptor (Homo sapiens, UniProt P35462); assay: Displacement of [125I]iodosulpiride from human cloned D3 receptor expressed in CHO cells; type: cell-based
[14] = species on record: Homo sapiens; assay: Selectivity for human 5TH1A over human 5HT1B
[15] = species on record: Homo sapiens; assay: Selectivity for human 5TH1A over human 5HT1D
[16] = Selectivity for rat SERT over human 5HT1B
[17] = Selectivity for rat SERT over human 5HT1D
[18] = molecular target: T3, 5-hydroxytryptamine receptor 1A (Homo sapiens) (UniProt P08908); assay: Intrinsic activity at 5HT1A receptor expressed in HEK293 cells relative to 5HT by [35S]GTPgammaS binding assay; type: functional, cell-based
T3 sequence (whole entry): T1 sequence (P08908 whole entry)

[19] = molecular target: T4, 5-hydroxytryptamine receptor 1A (Rattus norvegicus, UniProt P19327); assay: Agonist activity at rat 5HT1A receptor; type: functional
T4 sequence (P19327 whole entry): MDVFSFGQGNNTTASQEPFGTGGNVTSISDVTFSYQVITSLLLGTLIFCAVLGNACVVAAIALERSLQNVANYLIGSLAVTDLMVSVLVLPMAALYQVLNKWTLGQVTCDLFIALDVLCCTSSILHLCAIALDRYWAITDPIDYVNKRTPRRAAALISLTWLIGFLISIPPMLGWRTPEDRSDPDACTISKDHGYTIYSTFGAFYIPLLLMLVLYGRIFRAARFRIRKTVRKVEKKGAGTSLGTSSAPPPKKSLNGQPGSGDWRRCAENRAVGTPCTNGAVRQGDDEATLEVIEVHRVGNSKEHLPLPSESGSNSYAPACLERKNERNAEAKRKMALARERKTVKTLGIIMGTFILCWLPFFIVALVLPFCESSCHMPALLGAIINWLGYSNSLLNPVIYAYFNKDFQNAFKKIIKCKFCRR

[20] = Agonist activity at guinea pig 5HT1A receptor; type: functional, Cavia porcellus
[21] = species on record: Rattus norvegicus; assay: Ex vivo inhibition of [3H]5-HT uptake at SERT in rat cortical synaptosomes; type: functional; conditions: Brain
[22] = test system: Rattus norvegicus; assay: Ex vivo displacement of [3H]WAY-100635 from 5HT1A receptor in rat cortex at 1 mg/kg, po; type: functional
[23] = test system: Rattus norvegicus; assay: Ex vivo displacement of [3H]8-OH DPAT from 5HT1A receptor in rat cortex at 1 mg/kg, po; type: functional
[24] = Agonist activity at marmoset 5HT1A receptor; type: functional, Callithrix jacchus
[25] = species on record: Rattus norvegicus; assay: Ex vivo displacement of [3H]WAY-100635 from 5HT1A receptor in rat cortex; type: functional, organism-based
[26] = species on record: Rattus norvegicus; assay: Ex vivo displacement of [3H]8-OH DPAT from 5HT1A receptor in rat cortex; type: functional, organism-based
[27] = test system: Rattus norvegicus; assay: Attenuation of 8-OH DPAT induced locomotor activity in po dosed rat; type: functional
[28] = molecular target: Alpha-1B adrenergic receptor (Homo sapiens) (UniProt P35368); assay: Binding affinity at adrenergic alpha 1b receptor
[29] = test system: Rattus norvegicus; assay: Effect on locomotor activity in rat up to 10 mg/kg
[30] = Ratio of drug level in brain to blood in rat

Sequence of D(3) dopamine receptor (P35462 whole entry): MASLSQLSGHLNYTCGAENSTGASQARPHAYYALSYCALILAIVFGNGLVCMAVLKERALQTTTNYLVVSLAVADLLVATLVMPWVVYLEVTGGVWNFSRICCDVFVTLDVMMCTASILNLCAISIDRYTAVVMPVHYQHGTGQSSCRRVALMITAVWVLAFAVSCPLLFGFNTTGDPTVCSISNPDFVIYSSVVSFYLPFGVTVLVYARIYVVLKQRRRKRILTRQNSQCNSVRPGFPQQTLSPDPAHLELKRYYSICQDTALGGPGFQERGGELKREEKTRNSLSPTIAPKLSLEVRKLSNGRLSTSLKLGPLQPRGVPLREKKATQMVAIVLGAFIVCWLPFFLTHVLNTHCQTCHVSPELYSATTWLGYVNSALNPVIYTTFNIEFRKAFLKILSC
Sequence of 5-hydroxytryptamine receptor 1B (P28222 whole entry): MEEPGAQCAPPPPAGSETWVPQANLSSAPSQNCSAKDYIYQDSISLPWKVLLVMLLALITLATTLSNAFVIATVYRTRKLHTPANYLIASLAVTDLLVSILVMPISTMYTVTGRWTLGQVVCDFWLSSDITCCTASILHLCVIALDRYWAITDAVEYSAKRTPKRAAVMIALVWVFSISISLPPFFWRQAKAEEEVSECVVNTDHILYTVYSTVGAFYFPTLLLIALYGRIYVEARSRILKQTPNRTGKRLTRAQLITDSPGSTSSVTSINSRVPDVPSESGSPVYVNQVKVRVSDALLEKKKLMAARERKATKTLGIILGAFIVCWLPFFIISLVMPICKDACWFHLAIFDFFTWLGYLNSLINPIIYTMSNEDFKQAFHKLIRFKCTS
Sequence of 5-hydroxytryptamine receptor 2A (P28223 whole entry): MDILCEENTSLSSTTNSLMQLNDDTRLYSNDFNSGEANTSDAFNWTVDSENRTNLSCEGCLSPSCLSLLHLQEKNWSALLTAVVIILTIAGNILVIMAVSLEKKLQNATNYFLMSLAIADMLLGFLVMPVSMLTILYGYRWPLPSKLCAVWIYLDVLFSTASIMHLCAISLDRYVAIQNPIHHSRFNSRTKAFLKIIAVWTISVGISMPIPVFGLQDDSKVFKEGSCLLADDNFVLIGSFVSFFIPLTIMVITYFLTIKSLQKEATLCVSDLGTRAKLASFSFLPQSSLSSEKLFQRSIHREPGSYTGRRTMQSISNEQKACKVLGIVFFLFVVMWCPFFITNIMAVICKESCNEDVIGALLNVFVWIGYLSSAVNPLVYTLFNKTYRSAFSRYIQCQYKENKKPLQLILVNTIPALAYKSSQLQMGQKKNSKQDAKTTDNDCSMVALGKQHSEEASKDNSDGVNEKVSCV
Sequence of 5-hydroxytryptamine receptor 6 (P50406 whole entry): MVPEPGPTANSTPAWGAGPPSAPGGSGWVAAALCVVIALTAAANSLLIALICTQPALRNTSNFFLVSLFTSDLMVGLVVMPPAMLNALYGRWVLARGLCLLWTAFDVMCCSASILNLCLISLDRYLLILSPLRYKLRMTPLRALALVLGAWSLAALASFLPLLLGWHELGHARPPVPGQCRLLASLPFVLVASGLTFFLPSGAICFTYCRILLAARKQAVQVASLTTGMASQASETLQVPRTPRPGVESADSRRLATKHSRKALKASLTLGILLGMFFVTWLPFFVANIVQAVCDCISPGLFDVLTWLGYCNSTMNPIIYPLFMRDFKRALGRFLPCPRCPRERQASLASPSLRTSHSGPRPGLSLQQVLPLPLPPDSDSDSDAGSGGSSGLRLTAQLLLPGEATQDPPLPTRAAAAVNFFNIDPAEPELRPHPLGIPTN
Sequence of 5-hydroxytryptamine receptor 7 (P34969 whole entry): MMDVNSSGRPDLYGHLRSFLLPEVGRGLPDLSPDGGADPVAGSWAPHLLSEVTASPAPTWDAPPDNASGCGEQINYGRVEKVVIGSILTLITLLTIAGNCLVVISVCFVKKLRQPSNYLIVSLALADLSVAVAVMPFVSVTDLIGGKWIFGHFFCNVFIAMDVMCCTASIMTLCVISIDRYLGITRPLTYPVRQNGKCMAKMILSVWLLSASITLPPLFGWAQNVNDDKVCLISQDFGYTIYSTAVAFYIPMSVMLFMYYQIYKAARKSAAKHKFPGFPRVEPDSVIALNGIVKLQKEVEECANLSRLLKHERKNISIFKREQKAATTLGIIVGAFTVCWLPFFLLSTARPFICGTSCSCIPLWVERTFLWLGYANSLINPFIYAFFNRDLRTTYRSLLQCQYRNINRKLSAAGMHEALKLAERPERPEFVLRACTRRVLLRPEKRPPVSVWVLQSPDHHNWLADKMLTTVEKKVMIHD
Sequence of D(2) dopamine receptor (P14416 whole entry): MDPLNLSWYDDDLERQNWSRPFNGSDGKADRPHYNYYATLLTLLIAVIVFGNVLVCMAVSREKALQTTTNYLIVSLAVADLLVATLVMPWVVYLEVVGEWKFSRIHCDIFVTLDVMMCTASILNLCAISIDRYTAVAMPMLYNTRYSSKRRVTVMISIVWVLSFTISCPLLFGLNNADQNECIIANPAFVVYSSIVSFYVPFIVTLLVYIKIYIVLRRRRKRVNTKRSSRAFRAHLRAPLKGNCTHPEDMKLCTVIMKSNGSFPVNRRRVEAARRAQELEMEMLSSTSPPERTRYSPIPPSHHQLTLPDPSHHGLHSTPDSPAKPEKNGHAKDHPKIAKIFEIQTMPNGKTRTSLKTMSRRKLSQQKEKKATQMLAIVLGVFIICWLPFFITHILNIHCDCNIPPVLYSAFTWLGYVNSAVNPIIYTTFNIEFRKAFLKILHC
Sequence of Sodium-dependent serotonin transporter (P31652 whole entry): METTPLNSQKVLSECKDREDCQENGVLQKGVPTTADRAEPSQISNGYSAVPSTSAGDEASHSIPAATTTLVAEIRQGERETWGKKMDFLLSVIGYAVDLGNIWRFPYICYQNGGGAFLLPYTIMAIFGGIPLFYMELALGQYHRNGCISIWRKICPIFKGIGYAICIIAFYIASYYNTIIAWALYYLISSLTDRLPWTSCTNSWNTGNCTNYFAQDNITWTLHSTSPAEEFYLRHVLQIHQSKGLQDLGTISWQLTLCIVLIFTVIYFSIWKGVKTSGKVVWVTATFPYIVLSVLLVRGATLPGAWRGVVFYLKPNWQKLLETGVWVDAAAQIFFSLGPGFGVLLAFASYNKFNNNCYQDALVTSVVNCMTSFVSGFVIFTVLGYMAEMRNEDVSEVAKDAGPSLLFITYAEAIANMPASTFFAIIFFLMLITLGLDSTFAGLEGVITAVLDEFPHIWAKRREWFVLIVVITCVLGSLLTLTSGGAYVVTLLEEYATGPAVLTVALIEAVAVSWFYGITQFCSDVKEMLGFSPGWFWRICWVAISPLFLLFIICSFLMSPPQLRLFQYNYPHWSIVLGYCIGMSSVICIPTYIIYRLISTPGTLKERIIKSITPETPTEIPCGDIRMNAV
Sequence of 5-hydroxytryptamine receptor 2B (P41595 whole entry): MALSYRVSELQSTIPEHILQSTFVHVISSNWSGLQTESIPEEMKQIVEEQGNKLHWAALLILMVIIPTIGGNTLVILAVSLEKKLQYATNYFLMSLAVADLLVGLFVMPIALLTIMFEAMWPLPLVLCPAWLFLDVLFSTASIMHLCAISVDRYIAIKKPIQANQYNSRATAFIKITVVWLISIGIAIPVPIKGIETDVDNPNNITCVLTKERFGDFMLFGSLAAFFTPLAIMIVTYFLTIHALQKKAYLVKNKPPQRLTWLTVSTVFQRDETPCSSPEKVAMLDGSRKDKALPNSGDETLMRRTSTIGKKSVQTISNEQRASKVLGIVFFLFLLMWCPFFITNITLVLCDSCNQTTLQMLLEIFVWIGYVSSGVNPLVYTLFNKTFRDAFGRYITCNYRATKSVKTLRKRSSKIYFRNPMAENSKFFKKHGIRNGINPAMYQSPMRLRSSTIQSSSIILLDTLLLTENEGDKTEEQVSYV
Sequence of Alpha-1B adrenergic receptor (Homo sapiens) (P35368 whole entry, looked up): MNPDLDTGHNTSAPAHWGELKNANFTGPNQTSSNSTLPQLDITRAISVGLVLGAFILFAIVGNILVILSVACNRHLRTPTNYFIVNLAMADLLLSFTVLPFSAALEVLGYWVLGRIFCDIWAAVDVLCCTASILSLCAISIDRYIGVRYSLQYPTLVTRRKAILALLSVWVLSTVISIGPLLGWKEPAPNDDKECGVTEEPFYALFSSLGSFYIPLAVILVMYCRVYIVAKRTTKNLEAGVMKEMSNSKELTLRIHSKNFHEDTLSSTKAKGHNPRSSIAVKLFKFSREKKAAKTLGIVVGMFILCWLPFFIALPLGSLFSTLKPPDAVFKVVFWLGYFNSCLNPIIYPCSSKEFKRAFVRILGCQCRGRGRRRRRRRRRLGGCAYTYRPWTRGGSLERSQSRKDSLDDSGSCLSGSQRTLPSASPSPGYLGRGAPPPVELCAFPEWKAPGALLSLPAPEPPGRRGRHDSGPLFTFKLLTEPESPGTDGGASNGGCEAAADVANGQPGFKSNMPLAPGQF
Sequence of 5-hydroxytryptamine receptor 1D (P28221 whole entry): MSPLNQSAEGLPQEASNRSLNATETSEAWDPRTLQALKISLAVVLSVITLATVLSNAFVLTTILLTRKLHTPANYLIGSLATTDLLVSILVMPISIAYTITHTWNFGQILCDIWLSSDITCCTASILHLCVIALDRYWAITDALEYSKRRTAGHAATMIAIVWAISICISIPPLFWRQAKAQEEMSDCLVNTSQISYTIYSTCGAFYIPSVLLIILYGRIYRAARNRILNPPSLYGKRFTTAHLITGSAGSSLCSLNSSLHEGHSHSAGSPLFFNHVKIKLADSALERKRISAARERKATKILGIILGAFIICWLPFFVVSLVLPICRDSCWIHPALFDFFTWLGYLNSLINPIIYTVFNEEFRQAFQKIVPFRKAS

Row | SMILES | pKi [1] | pKi [2] | pKi [3] | pKi [4] | pKi [5] | pKi [7] | pKi [8] | pKi [9] | CL/F [10] | bioavailability [11] | pKi [12] | pKi [13] | Selectivity ratio [14] | Selectivity ratio [15] | Selectivity ratio [16] | Selectivity ratio [17] | Intrinsic activity [18] | pKi [19] | Log Ki [20] | ED50 [21] | other results
1 | Cc1ccc2c(OCCN3CCC(Cc4cc5c(cc4F)OCC(=O)N5)CC3)cc(Cl)cc2n1 | 8.60 | 5.70 | 6.10 | 7.80 | < 5.00 | < 5.30 | 5.10 | 7.40 | 18 mL/min/kg | 60% | 5.50 | 5.70 | 100 | 100 | 100 | 100 | 0 | < 9.00 | > -9 | 3 mg/kg | Log Ki ([6]; hek293): > -6; inhibition in vivo at 1 mg/kg [22]: 50%; inhibition in vivo at 1 mg/kg [23]: 50%; Log Ki [24]: > -9; Activity [25]: Dose-dependent effect; Activity [26]: Dose-dependent effect; ED50 [27]: 3 mg/kg; pKi [28]: 5.60; Activity [29]: inactive
2 | Cc1ccc2c(OCCN3CCC(Cc4cc5c(cc4F)OCC(=O)N5)CC3)cc(F)cc2n1 | 9.40 | 6.00 | 6.60 | 8.10 | 5.70 | 5.90 | < 6.00 | 7.40 | 19 mL/min/kg | 54% | 5.70 | 6.30 | 100 | 100 | 100 | 100 | 0 | < 9.00 | > -9 | 3 mg/kg | pKi [6]: 6.00; inhibition in vivo at 1 mg/kg [22]: 50%; inhibition in vivo at 1 mg/kg [23]: 50%; Log Ki [24]: > -9; Activity [25]: Dose-dependent effect; Activity [26]: Dose-dependent effect; ED50 [27]: < 1 mg/kg; Kp [30]: 1.2; pKi [28]: 6.10

Reference: ChEMBL document CHEMBL1139046, “3,4-Dihydro-2H-benzoxazinones as dual-acting 5-HT1A receptor antagonists and serotonin reuptake inhibitors” (Bioorg Med Chem Lett, 2007)
